In patent US20170003277A1 (priority 2015, published 2017):

Tests used:
[1] = system: mouse splenocytes; assay: Immunological cell type enrichment for genes modulated by GA in mouse splenocytes; type: cell-based; parameters: Score: scale not given here
Text: Genome-wide expression profiles in cells from three different datasets in two different species (human, mouse) were studied. LIMMA was utilized to identify a genome-wide list of differentially expressed genes induced by GA in the primed and ex vivo stimulated mouse splenocytes, as well as in the THP-1 human monocyte cell line. Repeated-measures ANOVA was utilized to find a genome-wide list of genes modulated by GA in treated MS patients. Advanced enrichment algorithms were then applied to elucidate the pathways and cell types modulated by GA.
In addition to the shared induced effects discussed above, each system and platform clearly captured different aspects of GA's impact on the immune system. […] In human PBMCs, genes associated with immune cell types were modulated early in treatment (by month 3), including certain cell types affected in prior systems, but also distinct cell types, such as megakaryocytes and myeloid progenitors (Table 11).

[2] = system: THP-1 human monocyte cell line; assay: Microarray gene expression in THP-1 cells, Polimunol vs Copaxone, two repeats, 6 hours (Example 11); type: cell-based
[3] = system: THP-1 human monocyte cell line; assay: Luminex secreted cytokines and chemokines from THP-1 cells, 24 hours, Polimunol or Probioglat vs Copaxone (Example 13); type: cell-based; conditions: mannitol control
Procedure: To evaluate effects of Copaxone at the protein level, and assess the extent to which differences observed at the mRNA level (using micaroarry and qRT-PCR) were further consistent with effects observed at the level of the translated proteins, levels of 42 secreted cytokines and chemokines were measured using Luminex technology, analyzing the supernatant of THP-1 cells (human monocyte cell line) stimulated for 24 hours with Copaxone, FOGA, or mannitol control.
Measurements were also undertaken at the protein level, in order to assess the biological relevance of the observed gene expression differences. Levels of a panel of secreted cytokines and chemokines were measured via Luminex from THP-1 cells stimulated with branded GA, Polimunol, or Probioglat.
Cells from the THP-1 human monocyte cell line were incubated with branded GA, FOGA (Polimunol or Probioglat), or vehicle control (mannitol) for 24 hours. This time point was chosen in order to reflect translation of mRNA expression patterns observed in the same study design at 6 hours post stimulation. Supernatants were collected and assayed for the concentration of selected proteins using a Luminex assay. A total of 5 biological replicates per condition were utilized.
Data (concentrations in pg/mL) were compared using a two-sided t-test with equal variance, and corrected for multiple hypothesis testing using Benjamini-Hochberg correction. […]

[4] = Level of Copaxone in THP-1 cell culture medium over time; type: physicochemical; conditions: THP-1 culture medium, over 24 hours; 50 μg/mL spiked
[5] = B.GC.Sp.rnk, Upregulated (top 20 results)
[6] = DC.103.11b..LuLN.rnk, Downregulated (top 20 results)
[7] = DC.103.11b..PolyIC.Lu.rnk, Upregulated (top 20 results)
[8] = DC.103.11b.24..Lu.rnk, Upregulated (top 20 results)
[9] = DC.8.4.11b..SLN.rnk, Downregulated (top 20 results)
[10] = DC.Ilhilang.103.11b..SLN.rnk, Downregulated (top 20 results)
[11] = DC.Ilhilang.103.11blo.SLN.rnk, Downregulated (top 20 results)
[12] = DC.LC.Sk.rnk, Upregulated (top 20 results)
[13] = GN.Arth.BM.rnk, Downregulated (top 20 results)
[14] = GN.Arth.SynF.rnk, Downregulated (top 20 results)
[15] = GN.BI.rnk, Downregulated (top 20 results)
[16] = GN.BM.rnk, Downregulated (top 20 results)
[17] = GN.Thio.PC.rnk, Downregulated (top 20 results)
[18] = GN.UrAc.PC.rnk, Downregulated (top 20 results)
[19] = Mo.6C.Il..BM.rnk, Downregulated (top 20 results)
[20] = Mo.6C.Ilint.BI.rnk, Downregulated (top 20 results)
[21] = NK.H..MCMV1.Sp.rnk, Upregulated (top 20 results)
[22] = NK.MCMV1.Sp.rnk, Upregulated (top 20 results)
[23] = SC.CDP.BM.rnk, Downregulated (top 20 results)
[24] = SC.GMP.BM.rnk, Downregulated (top 20 results)
[25] = SC.MDP.BM.rnk, Downregulated (top 20 results)
[26] = SC.MEP.BM.rnk, Upregulated (top 20 results)
[27] = T.4FP3.25..AA.rnk, Upregulated (top 20 results)
[28] = T.4SP24int.Th.rnk, Downregulated (top 20 results)
[29] = T.8Eff.Sp.OT1.12hr.LisOva.rnk, Upregulated (top 20 results)
[30] = T.8Eff.Sp.OT1.24hr.LisOva.rnk, Upregulated (top 20 results)
[31] = T.8Eff.Sp.OT1.48hr.LisOva.rnk, Upregulated (top 20 results)
[32] = T.8Nve.Sp.OT1.rnk, Downregulated (top 20 results)
[33] = T.DPbl.Th.rnk, Upregulated (top 20 results)
[34] = T.ISP.Th.rnk, Upregulated (top 20 results)
[35] = Tgd.vg2.24ahi.e17.Th.rnk, Upregulated (top 20 results)
[36] = Tgd.vg3.24alo.e17.Th.rnk, Upregulated (top 20 results)
[37] = preB.FrC.BM.rnk, Upregulated (top 20 results)
[38] = preT.DN3B.Th.rnk, Upregulated (top 20 results)
[39] = preT.DN3.4.Th.rnk, Upregulated (top 20 results)
[40] = proB.CLP.BM.rnk, Downregulated (top 20 results)
[41] = proB.CLP.FL.rnk, Downregulated (top 20 results)
[42] = proB.FrA.FL.rnk, Upregulated (top 20 results)
[43] = proB.FrBC.FL.rnk, Upregulated (top 20 results)
[44] = In two prior THP-1 studies (intersection of both prior datasets)
[45] = Intersection of prior THP-1 studies and current study

Substance: glatiramer acetate [Copaxone®]
- Score [1, 5]: 602.5
- p.val [1, 5]: 1.01E−12
- Score [1, 6]: 1152
- p.val [1, 6]: 2.47E−06
- Score [1, 7]: 705
- p.val [1, 7]: 1.44E−14
- Score [1, 8]: 738.3
- p.val [1, 8]: 8.91E−12
- Score [1, 9]: 1117
- p.val [1, 9]: 1.86E−07
- Score [1, 10]: 1151
- p.val [1, 10]: 9.94E−08
- Score [1, 11]: 1112
- p.val [1, 11]: 5.07E−08
- Score [1, 12]: 709.9
- p.val [1, 12]: 2.89E−15
- Score [1, 13]: 1218
- p.val [1, 13]: 0
- Score [1, 14]: 1160
- p.val [1, 14]: 2.72E−11
- Score [1, 15]: 1185
- p.val [1, 15]: 6.66E−15
- Score [1, 16]: 1212
- p.val [1, 16]: 1.11E−16
- Score [1, 17]: 1197
- p.val [1, 17]: 6.39E−14
- Score [1, 18]: 1145
- p.val [1, 18]: 5.87E−14
- Score [1, 19]: 1095
- p.val [1, 19]: 1.71E−06
- Score [1, 20]: 1107
- p.val [1, 20]: 1.62E−05
- Score [1, 21]: 770.8
- p.val [1, 21]: 7.11E−15
- Score [1, 22]: 793.3
- p.val [1, 22]: 1.51E−14
- Score [1, 23]: 1078
- p.val [1, 23]: 0
- Score [1, 24]: 1341
- p.val [1, 24]: 1.56E−05
- Score [1, 25]: 1206
- p.val [1, 25]: 1.56E−05
- Score [1, 26]: 641.2
- p.val [1, 26]: 0
- Score [1, 27]: 697.6
- p.val [1, 27]: 2.76E−11
- Score [1, 28]: 1040
- p.val [1, 28]: 0
- Score [1, 29]: 683
- p.val [1, 29]: 0
- Score [1, 30]: 661.8
- p.val [1, 30]: 5.97E−14
- Score [1, 31]: 587.7
- p.val [1, 31]: 0
- Score [1, 32]: 1095
- p.val [1, 32]: 0
- Score [1, 33]: 659.3
- p.val [1, 33]: 0
- Score [1, 34]: 584.9
- p.val [1, 34]: 0
- Score [1, 35]: 620
- p.val [1, 35]: 9.88E−13
- Score [1, 36]: 620.8
- p.val [1, 36]: 2.72E−11
- Score [1, 37]: 620.2
- p.val [1, 37]: 0
- Score [1, 38]: 568
- p.val [1, 38]: 1.64E−10
- Score [1, 39]: 560.7
- p.val [1, 39]: 2.96E−10
- Score [1, 40]: 1181
- p.val [1, 40]: 1.35E−06
- Score [1, 41]: 1115
- p.val [1, 41]: 0
- Score [1, 42]: 578.6
- p.val [1, 42]: 7.17E−11
- Score [1, 43]: 595.3
- p.val [1, 43]: 0
- Probesets significantly modulated by Copaxone relative to mannitol ([2]; 6 hours): 12,115
- IL1ORA expression relative to mannitol ([2]; FDR p<1.7e-21): significantly upregulated
- Probesets downregulated by Copaxone versus mannitol with FC ≦ −1.5, number ([2]; In current study): 28
- Probesets upregulated by Copaxone versus mannitol with FC ≧ 1.5, number ([2]; In current study): 156
- Probesets downregulated by Copaxone versus mannitol with FC ≦ −1.5, number [2, 44]: 15
- Probesets upregulated by Copaxone versus mannitol with FC ≧ 1.5, number [2, 44]: 149
- Probesets downregulated by Copaxone versus mannitol with FC ≦ −1.5, number [2, 45]: 9
- Probesets upregulated by Copaxone versus mannitol with FC ≧ 1.5, number [2, 45]: 94
- IL1RN expression relative to mannitol ([2]; all 3 present probesets: FDR p values<6.2e-21, 2.6e-17, 8.0e-14): strongly upregulated
- IL10 expression relative to mannitol ([2]; single probeset not present): not upregulated significantly
- Significant probesets in pairwise comparisons between three Copaxone lots ([2]; two comparisons / third comparison (adjusted p value 0.044)): zero and single
- Probesets significantly downregulated by Copaxone ([2]; vs mannitol, 6 hours): 6819
- Probesets significantly upregulated by Copaxone ([2]; vs mannitol, 6 hours): 5296
- CCL2 secreted level relative to control [3]: not modulated
- Copaxone concentration in cell culture medium [4]: 44 to 52 µg/mL
